In publication PMC11513924, “Addressing the Intracellular Vestibule of the Plasmodial Lactate Transporter PfFNT by p-Substituted Inhibitors Amplifies In Vitro Activity” (Journal of Medicinal Chemistry, 2024):

What was measured:
PfFNT [1] = molecular target: T1, PfFNT (Plasmodium falciparum, UniProt O77389); assay: Yeast-based PfFNT 14C-lactate transport assay; type: cell-based; details: 14C-lactate transport, PfFNT wild type; read-out: IC50 (transport, yeast)
T1 construct: expressed in transfected cells; membranes solubilized
T1 sequence (O77389 1-309): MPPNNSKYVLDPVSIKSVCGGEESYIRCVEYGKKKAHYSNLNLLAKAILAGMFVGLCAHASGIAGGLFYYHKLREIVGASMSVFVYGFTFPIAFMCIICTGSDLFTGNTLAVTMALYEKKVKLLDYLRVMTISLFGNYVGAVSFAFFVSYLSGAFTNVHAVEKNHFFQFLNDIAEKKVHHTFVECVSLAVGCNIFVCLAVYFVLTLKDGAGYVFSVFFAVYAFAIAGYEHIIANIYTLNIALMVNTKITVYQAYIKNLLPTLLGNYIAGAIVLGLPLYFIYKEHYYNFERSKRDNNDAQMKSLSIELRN
Method: Lactate transport functionality of PfFNT was assayed as described before.[4] Briefly, Saccharomyces cerevisiae W303-1A jen1Δady2Δcells[32] (MATa, can1-100, ade2-loc, his3-11-15, leu2-3,-112, trp1-1-1, ura3-1, jen1::kanMX4, ady2::hphMX4) kindly provided by M. Casal expressing PfFNT was grown at 29 °C to an OD600 of 1 (±0.1). Harvested cells were resuspended to an OD600 of 50 (±5) in 50 mM HEPES/Tris, pH 6.8 (±0.1). 10–15 min prior to the assay, 80 μL of yeast suspension were added to 1 μL of DMSO with or without inhibitor in a 1.5 mL reaction tube at 18 °C. Twenty μL of L-lactate solution spiked with [1-^14C]-L-lactate (Hartmann Analytic) was added yielding a 1 mM inward gradient with 0.04 μCi label. Transport was stopped after 30 s by abrupt dilution with 1 mL of ice-cold water, vacuum filtration via GF/C filter membranes (Whatman), and washing with 7 mL of ice-cold water. The radio label was analyzed by liquid scintillation counting in 3 mL of scintillation cocktail (Rotiszint eco plus, Carl Roth) using a Packard TriCarb 2900 TR (PerkinElmer Inc.).
(§1) Transport assays in yeast were done in triplicate biological replicates. At least nine technical replicates were measured around the IC50 value, concentrations with no or full inhibition were determined from at least three technical replicates. EC50-values were determined from 2 to 4 biological replicates. IC50 and EC50 curves were fitted by the Hill equation with variable slope (Graph Pad Prism 10). Error bars denote ± SEM (for n ≥ 3) or ± range (for n = 2). For the EC50-value of 7a the error of the fitting of the curve is given. Cytotoxicity was determined from biological triplicates; error is shown as SEM.

PfFNT [2] = molecular target: T1, PfFNT; assay: Fluorescence cross-correlation spectroscopy (FCCS) competition binding to solubilized PfFNT-GFP
Method: FCCS measurements were conducted and analyzed as before.[20],[30] Briefly, membranes of stably transfected cells expressing PfFNT with a C-terminal GFP (green) were solubilized. BH267.meta 2 fused with DY647 (red) was used as a tracer to monitor the binding of compounds in a competition assay. Assays were done in […] glass bottom plates (cat. no. PS96B-G175, SWISSCI, Switzerland) using a plate reader (Insight, Evotec Technologies, Germany) fitted with a U-Apo300 40× water immersion lens, NA 1.15 (Olympus, Japan). Excitation was done with an argon-ion laser (488 nm) and a helium–neon laser (633 nm). Fluorescence fluctuations were recorded 10 times for 5 s per sample and fitted using FCS+ plus Analyze (PerkinElmer software). Initially, IC50 values were determined from the concentration of the dual labeled complex titrated against a competitor in a range of 100 pM to 100 μM (Figure S1). Then, Ki values were calculated using the Cheng Prusoff equation[31] based on the previously determined KD value for the BH267.meta-DY647 tracer.[20]

[3] = tested on: Plasmodium falciparum 3D7 parasites; assay: P. falciparum 3D7 culture growth assay in erythrocytes (in vitro activity); type: cell-based; details: for activity at 0.05 µM / activity at 0.2 µM / activity at 0.1 µM / EC50: 48 h; for activity at 0.05 µM / activity at 0.2 µM / activity at 0.1 µM: % of untreated control; for activity at 0.05 µM: read-out: % Growth at 50 nM (in vitro, 3D7); for activity at 0.2 µM: 200 nM compound, read-out: % Growth at 200 nM (in vitro, 3D7); for activity at 0.1 µM: 100 nM compound, read-out: % Growth at 100 nM (in vitro, 3D7); for EC50: cultures in erythrocytes, read-out: EC50 (in vitro, 3D7)
Method: The parasitemia was measured using an LSR II FACS (BD Biosciences) as described.[34],[35] Growth was assessed as % of untreated control. EC50 curves were plotted using Graph Pad Prism.
as §1, with “EC50-values were determined from 2 to 4 biological replicates.” left out, “For the EC50-value of 7a the error of the fitting of the curve is given.” left out

[4] = Plasmodium falciparum, 3D7, Erythrocyte, 50 nM compound
[5] = Plasmodium falciparum, 3D7, Erythrocyte

Compound	IC50 (PfFNT [1])	Ki (PfFNT [2])	activity at 0.05 µM [3, 4]	activity at 0.2 µM [3, 5]	activity at 0.1 µM [3, 5]	EC50 [3, 5]	inhibition at 0.05 µM ([3]; Plasmodium falciparum, 3D7, Erythrocyte, 50 nM compound, 100 minus % growth, read-out: inhibitory activity at 50 nM (in vitro, 3D7))	times lower in vitro activity (vs 7e) ([3]; 3D7)
COCCCNc1ccc(C(=O)/C=C(\O)C(F)(F)C(F)(F)F)cn1 [7h, 4,4,5,5,5-Pentafluoro-3-hydroxy-1-(6-((3-methoxypropyl)amino)pyridin-3-yl)pent-2-en-1-one]	0.16 ± 0.01 µM	0.055 ± 0.006 µM	65%	17%				
O=C(/C=C(\O)C(F)(F)C(F)(F)F)c1ccc(NC2CC2)nc1 [7k, 1-(6-(Cyclopropylamino)pyridin-3-yl)-4,4,5,5,5-pentafluoro-3-hydroxypent-2-en-1-one]	0.19 ± 0.02 µM	0.01 ± 0.002 µM	44%	5%	11%			
CCCCCNc1ccc(C(=O)/C=C(\O)C(F)(F)C(F)(F)F)cn1 [7g, 4,4,5,5,5-Pentafluoro-3-hydroxy-1-(6-(pentylamino)pyridin-3-yl)pent-2-en-1-one]	0.39 ± 0.03 µM	0.013 ± 0.001 µM	37%	6%	12%			
CCC(=O)Nc1ccc(C(=O)/C=C(\O)C(F)(F)C(F)(F)F)cn1 [8b, N-(5-(4,4,5,5,5-Pentafluoro-3-hydroxypent-2-enoyl)pyridin-2-yl)propionamide]	0.25 ± 0.02 µM	0.027 ± 0.004 µM	17%	4%	10%			
FC(F)(F)C(F)(F)c1nc(-c2cccnc2)n[nH]1 [4a, 3-[5-(1,1,2,2,2-Pentafluoroethyl)-1H-1,2,4-triazol-3-yl]pyridine]	8.44 ± 1.85 µM	1.61 ± 0.298 µM						
O=C(/C=C(\O)C(F)(F)C(F)(F)F)c1ccc(NC(=O)c2ccccc2)nc1 [8c, N-(5-(4,4,5,5,5-Pentafluoro-3-hydroxypent-2-enoyl)pyridin-2-yl)benzamide]	0.37 ± 0.02 µM	0.016 ± 0.002 µM	78%	13%	51%			
O=C(/C=C(\O)C(F)(F)C(F)(F)F)c1cccs1 [5c, 4,4,5,5,5-Pentafluoro-3-hydroxy-1-(thiophen-2-yl)pent-2-en-1-one]	0.11 ± 0.01 µM	0.045 ± 0.025 µM				1.92 ± 0.17 µM		
O=C(/C=C(\O)C(F)(F)C(F)(F)F)c1ccco1 [5a, 4,4,5,5,5-Pentafluoro-1-(furan-2-yl)-3-hydroxypent-2-en-1-one]	0.17 ± 0.06 µM	0.037 ± 0.005 µM				1.98 ± 0.04 µM		
FC(F)(F)C(F)(F)c1cc(-c2cccnc2)n[nH]1 [4b, 3-[5-(1,1,2,2,2-Pentafluoroethyl)-1H-pyrazol-3-yl]pyridine]	~1000 µM	> 80 µM						
O=C(/C=C(\O)C(F)(F)C(F)(F)F)c1ccoc1 [5b, 4,4,5,5,5-Pentafluoro-1-(furan-3-yl)-3-hydroxypent-2-en-1-one]	0.1 ± 0.01 µM	0.072 ± 0.006 µM				0.86 ± 0.08 µM		
O=C(/C=C(\O)C(F)(F)C(F)(F)F)c1ccc(NCC2CC2)nc1 [7m, 1-(6-((Cyclopropylmethyl)amino)pyridin-3-yl)-4,4,5,5,5-pentafluoro-3-hydroxypent-2-en-1-one]	0.17 ± 0.01 µM	0.018 ± 0.003 µM	6%	2%	3%		94%	
O=C(/C=C(\O)C(F)(F)C(F)(F)Cl)c1cccnc1 [3d, 5-Chloro-4,4,5,5-tetrafluoro-3-hydroxy-1-(pyridin-3-yl)pent-2-en-1-one]	0.18 ± 0.03 µM	0.037 ± 0.021 µM				0.35 ± 0.03 µM		
CCCCNc1ccc(C(=O)/C=C(\O)C(F)(F)C(F)(F)F)cn1 [7f, 1-(6-(Butylamino)pyridin-3-yl)-4,4,5,5,5-pentafluoro-3-hydroxypent-2-en-1-one]	0.33 ± 0.01 µM	0.027 ± 0.004 µM	25%	10%	15%			
CC(C)CNc1ccc(C(=O)/C=C(\O)C(F)(F)C(F)(F)F)cn1 [7j, 4,4,5,5,5-Pentafluoro-3-hydroxy-1-(6-(isobutylamino)pyridin-3-yl)pent-2-en-1-one]	0.28 ± 0.03 µM	0.03 ± 0.003 µM	61%	11%	17%			
CNc1ccc(C(=O)/C=C(\O)C(F)(F)C(F)(F)F)cn1 [7c, 4,4,5,5,5-Pentafluoro-3-hydroxy-1-(6-(methylamino)pyridin-3-yl)pent-2-en-1-one]	0.13 ± 0.02 µM	0.036 ± 0.012 µM	103%	85%	97%			
O=C(/C=C(\O)C(F)(F)C(F)(F)F)c1ccc(N2CCNCC2)nc1 [7t, 4,4,5,5,5-Pentafluoro-3-hydroxy-1-[6-(piperazin-1-yl)pyridin-3-yl]pent-2-en-1-one]	17.3 ± 6.5 µM	0.858 ± 0.129 µM						
CC(C)Nc1ccc(C(=O)/C=C(\O)C(F)(F)C(F)(F)F)cn1 [7n, 4,4,5,5,5-Pentafluoro-3-hydroxy-1-(6-(isopropylamino)pyridin-3-yl)pent-2-en-1-one]	0.15 ± 0.01 µM	0.067 ± 0.011 µM	53%	15%	31%			
O=C(/C=C(\O)C(F)(F)C(F)(F)F)c1ccsc1 [5d, 4,4,5,5,5-Pentafluoro-3-hydroxy-1-(thiophen-3-yl)pent-2-en-1-one]	0.15 ± 0.01 µM	0.085 ± 0.004 µM				1.87 ± 0.15 µM		
CCNc1ccc(C(=O)/C=C(\O)C(F)(F)C(F)(F)F)cn1 [7d, 1-(6-(Ethylamino)pyridin-3-yl)-4,4,5,5,5-pentafluoro-3-hydroxypent-2-en-1-one]	0.12 ± 0.01 µM	0.021 ± 0.005 µM	45%	6%	13%			
CCN(CC)c1ccc(C(=O)/C=C(\O)C(F)(F)C(F)(F)F)cn1 [7s, 1-(6-(Diethylamino)pyridin-3-yl)-4,4,5,5,5-pentafluoro-3-hydroxypent-2-en-1-one]	0.38 ± 0.02 µM	0.142 ± 0.024 µM	71%	80%	76%			
O=C(/C=C(\O)C(F)(F)C(F)(F)F)c1ccc(NCC(F)(F)F)nc1 [7i, 4,4,5,5,5-Pentafluoro-3-hydroxy-1-(6-((2,2,2-trifluoroethyl)amino)pyridin-3-yl)pent-2-en-1-one]	0.21 ± 0.02 µM	0.024 ± 0.006 µM	71%	9%	38%			
Nc1ccc(C(=O)/C=C(\O)C(F)(F)C(F)(F)F)cn1 [7b, 1-(6-Aminopyridin-3-yl)-4,4,5,5,5-pentafluoro-3-hydroxypent-2-en-1-one]	0.19 ± 0.02 µM	0.031 ± 0.006 µM	79%	29%	65%			at least 3 times
